Results from ChEMBL document CHEMBL4699662, “Identification and structure-activity relationship studies of small molecule inhibitors of the human cathepsin D” (Bioorg Med Chem, 2021).

Legend:
in vitro [1] = conditions: human, liver microsomes
in vitro [2] = conditions: mouse, liver microsomes
[3] = target: Cathepsin D (Homo sapiens) (UniProt P07339); conditions: dose 182.0 nM, time 130.0 min
Sequence of Cathepsin D (Homo sapiens) (P07339 65-162 limits assumed): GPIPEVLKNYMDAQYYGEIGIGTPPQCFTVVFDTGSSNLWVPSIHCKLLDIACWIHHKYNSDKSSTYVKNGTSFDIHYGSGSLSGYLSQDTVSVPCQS
Sequence of Cathepsin D (Homo sapiens) (P07339 169-412 limits assumed): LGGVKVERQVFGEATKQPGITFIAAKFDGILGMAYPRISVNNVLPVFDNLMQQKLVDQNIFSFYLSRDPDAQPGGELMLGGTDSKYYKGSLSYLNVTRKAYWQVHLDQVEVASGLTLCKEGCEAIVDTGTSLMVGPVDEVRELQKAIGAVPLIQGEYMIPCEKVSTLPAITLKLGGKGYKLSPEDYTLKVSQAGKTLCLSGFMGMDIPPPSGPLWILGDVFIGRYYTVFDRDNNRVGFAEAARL

Row | SMILES | microsomal CLint at 0.5 h, 1 µM (in vitro [1]) [µL/min/mg] | microsomal CLint at 0.5 h, 1 µM (in vitro [2]) [µL/min/mg] | inhibition [3] [%]
1 | Cc1ccc(S(=O)(=O)N(C)C)cc1NC(=O)[C@@H](CC1CCCCC1)NC(=N)NC(=O)Cc1cccc(C#N)c1 | 287 | 250 | –
2 | Cc1ccc(S(=O)(=O)N(C)C)cc1NC(=O)[C@@H](CC1CCCCC1)NC(=N)NC(=O)Cc1ccc(F)c(F)c1 | 163 | 264 | –
3 | COc1ccc(CC(=O)NC(=N)N[C@H](CC2CCCCC2)C(=O)Nc2cc(N(S(C)(=O)=O)S(C)(=O)=O)ccc2C)cc1OC | 186 | 165 | –
4 | CC(C)CC(=O)N[C@H](C(=O)N[C@H](C(=O)N[C@@H](CC(C)C)[C@@H](O)CC(=O)N[C@@H](C)C(=O)N[C@@H](CC(C)C)[C@@H](O)CC(=O)O)C(C)C)C(C)C | – | – | 98.7
5 | CNS(=O)(=O)c1ccc(C)c(NC(=O)[C@H](NC(=N)NC(=O)Cc2ccc(OC)c(OC)c2)C(C)C)c1 | 179 | 104 | –

Results, then the molecule that gave them:

Row | microsomal CLint at 0.5 h, 1 µM (in vitro [1]) [µL/min/mg] | microsomal CLint at 0.5 h, 1 µM (in vitro [2]) [µL/min/mg] | inhibition [3] [%] | SMILES
6 | 187 | 197 | – | COc1ccc(CC(=O)NC(=N)N[C@H](CSC)C(=O)Nc2cc(S(N)(=O)=O)ccc2C)cc1OC
7 | 89.3 | 266 | – | CCC[C@@H](NC(=N)NC(=O)Cc1ccc(OC)c(OC)c1)C(=O)Nc1cc(S(N)(=O)=O)ccc1C
8 | 59.1 | 86.8 | – | CCOC[C@@H](NC(=N)NC(=O)Cc1ccc(OC)c(OC)c1)C(=O)Nc1cc(S(N)(=O)=O)ccc1C
9 | 215 | 231 | – | CCCC[C@@H](NC(=N)NC(=O)Cc1ccc(OC)c(OC)c1)C(=O)Nc1cc(S(N)(=O)=O)ccc1C
